From article PMC7352977 (Cancers, 2020)

Key:
KRAS wild-type = test: [α-32P] GTP binding assay, KRAS wild-type; format: biochemical, human; details: H-REV107 peptide, 30 °C
Description: His-tagged human KRAS wild-type and mutants (G12V, G12D, G12C, G13D, and Q61H) and H-REV107 were transformed into Escherichia coli BL21 (DE3) cells. Each individual colony was inoculated into […] of Luria-Bertani (LB) medium enriched with 10 μg/mL kanamycin, after which the bacteria were grown for 16 h at 37 °C. These cells were then added to 2 L of LB containing antibiotics and grown at 37 °C until the OD600 reached 0.5–0.6. The expression of the proteins was induced by 0.5 mM isopropyl-thio-β-D-1-thiogalactopyranoside (IPTG) at 25 °C, after which the bacterial cells were harvested by centrifugation at 3830 × g for 25 min at 4 °C, then disrupted by sonication in lysis buffer (50 mM HEPES (pH 7.5), 100 mM NaCl, and 2 mM MgCl2). The supernatant was subsequently incubated with Ni-NTA resin (BioRad) for 10 min. After washing, the bound protein was eluted from the beads with elution buffer (50 mM HEPES (pH 7.5), 500 mM NaCl, 2 mM MgCl2, and 400 mM imidazole). The eluted protein was further purified by fast protein liquid chromatography (FPLC) using a Superdex 200 10/300 GL column equilibrated with 50 mM HEPES (pH 7.5), 100 mM NaCl, and 2 mM MgCl2. The purity and identity of the proteins were determined by 15% SDS-PAGE. […]
In addition, the protein complex was incubated with [α-^32P] […] Protein-bound radioactive nucleotide was quantified by liquid scintillation counting.

SW480 = test: Cell proliferation assay (CCK-8), SW480; format: cell-based; details: SW480 (colon, KRAS G12V), 72 h, CCK-8, triplicate
Description: (§1) Cells (2 × 10^3/well, 100 μL final volume per well) for HCT116 and NCI-H460, 5 × 10^3 cells/well for SW480 and NCI-H23, and 1 × 10^4 cells/well for AsPC-1 cell lines were used in this assay (Table 4). All cells were allowed to attach for 24 h after plating, and the cells were treated with fresh media the next day. […] After the 72 h incubation, cell counting kit-8 (CCK-8) solution (10 μL/well) was added, and cells were incubated for a further 4 h at 37 °C CO2 incubator. The optical density (OD) of each well at 450 nm was measured by using the Microplate reader (BioTek, USA). Experiments were performed at least three times with representative data presented.

AsPC-1 = test: Cell proliferation assay (CCK-8), AsPC-1; format: cell-based, human; details: AsPC-1 (pancreas, KRAS G12D), 72 h, CCK-8, triplicate
Description: as §1

NCI-H23 = test: Cell proliferation assay (CCK-8), NCI-H23; format: cell-based; details: NCI-H23 (lung, KRAS G12C), 72 h, CCK-8, triplicate
Description: as §1

NCI-H460 = test: Cell proliferation assay (CCK-8), NCI-H460; format: cell-based; details: NCI-H460 (lung, KRAS Q61H), 72 h, CCK-8, triplicate
Description: as §1

HCT116 = test: Cell proliferation assay (CCK-8), HCT116; format: cell-based; details: HCT116 (colon, KRAS G13D), 72 h, CCK-8, triplicate
Description: as §1

A549 = test: MTT, wild-type KRAS A549 cell line; format: cell-based; details: A549, compared with other tumor cell lines
[1] = tested on: MEK/ERK signaling pathway; test: Western blot analysis of MEK/ERK signaling, SW480; format: cell-based; details: SW480, 24 and 48 h
Description: (§2) Cells were plated in a 100 mm cell culture dish and incubated under standard conditions (37 °C under a humidified atmosphere containing 5% CO2) in RPMI-1640 media with 10% fetal bovine serum, 100 μ/mL penicillin, and 100 μ/mL streptomycin (Welgene, Korea). […] After treatment of 24, 48, and 72 h, the cells were lysed using protein extraction solution PRO-PREPTM (iNtRON Biotechnology, Korea) containing a protease inhibitor cocktail for 30 min at 4 °C. After this, the cells were centrifuged at 15,115 x g for 30 min. Protein content in the supernatant was measured with Bradford protein assay using bovine serum albumin (BSA). The protein was separated by 10% SDS-PAGE and transferred onto an immobilon-P membrane (Millipore, USA). Membrane was blocked in ProNA Protein-free 5X general or phospho-block solution (TransLab, Korea) for 1 h at room temperature. The membrane was incubated with primary antibodies against phosphorylated (p)-MEK1/2 (Ser217/221), total (t)-MEK1/2, p-ERK1/2 (Thr202/Tyr204), and t-ERK1/2 (Cell Signaling Technology, USA) at 4 °C overnight, washed with 1X PBS containing 0.1% Tween (PBST) three times, and incubated with anti-IgG secondary antibodies (Santa Cruz Biotechnology, USA) in PBST for 1 h. The transferred protein band was visualized with EzWestLumi plus (ATTO corporation, Japan). Probing for ß-acitn was used as a loading control.

[2] = tested on: MEK/ERK signaling pathway; test: Western blot analysis of MEK/ERK signaling, AsPC-1; format: cell-based, human; details: AsPC-1, 24 and 48 h
Description: as §2

[3] = tested on: AsPC-1 pancreatic cancer cells (xenograft); test: Tumor xenograft model, AsPC-1, nude mice; format: in vivo; details: abdominal cavity
Description: Five were deployed per group.
The cells used in the cancer animal model used human-specific pancreatic cancer cell liquor AsPC-1, which was defrosted more than 2 weeks before the animal model was created to obtain stable cell alcohol conditions, and were incubated three times. The growth medium used for cell culture was used by adding 10% fetal bovine serum and 1% penicillin/streptomycin to the RPMI-1640 medium used for AsPC-1 cell lines. On the day of the production of the cancer animal model, AsPC-1 cell line was removed from the cell culture flask by 0.25% Trypsin/EDTA and washed twice with PBS. The cell line was finally harried to HBSS + matrigel (1:1). Since the number of cells to be used in the experiment was 1 × 10^6/head, the finally disheveled cell concentration was 1 × 10^7/mL. It was stored in ice until the test was used. In the case of cell transplantation, 100 μL was transplanted. The separation was performed when the average volume of the tumor had grown to more than 100 mm^3. A random separation of groups was conducted to ensure that the average tumor volume was equal in the day of separation, and the separation of groups was carried out into a total of three groups.

Solubility in water = format: physicochemical

GTP binding activity to KRAS wild-type, decreased to (KRAS wild-type): 12%
GI50 (SW480): 358 µM
GI50 (AsPC-1): 417 µM
GI50 (in words) (NCI-H23): millimolar ranges
GI50 (in words) (NCI-H460): millimolar ranges
GI50 (in words) (HCT116): millimolar ranges
solubility in water (in words) (Solubility in water): highly soluble
Sequence: LYDVAGSDKY [H-REV107 peptide]
effect on proliferation of wild-type KRAS A549 cell line (in words) (A549): higher concentration state of H-REV107 peptide had an effect on the proliferation
expression level of total MEK/ERK protein (in words) [1]: little effect
phosphorylation levels of MEK/ERK (in words) [1]: decrease the phosphorylation levels of MEK/ERK
expression level of total MEK/ERK protein (in words) [2]: little effect
phosphorylation levels of MEK/ERK, tendency to decrease (in words) [2]: little
growth rate of tumors, high concentration group (in words) ([3]; 200 mg/kg): lowest growth rate
growth rate of tumors compared to Vehicle (in words) ([3]; H-REV107 peptide experimental group): lower growth rate of tumors
tumor volume compared to Vehicle (in words) ([3]; all doses (50 and 200 mg/kg), day 3 to day 32 after inoculation): decrease
